Read-outs that look alike come from different tables or passages of the source.
Legend:
[1] = tested on: NF-κB pathway, THP1-Dual™ cells; assay: STING reporter assay in THP1-Dual cells, NF-κB pathway (SEAP, QUANTI-Blue); format: cell-based, human; details: THP1-Dual cells, 10% human plasma, 20 hours, SEAP, 100% activation = 100 μM cGAMP, read-out: NFkB (EC50 μM)
Outline: (§1)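 Activation normalised between DMSO-only baseline and 100 μM cGAMP maximum, after 20 h compound exposure (starting at 100 μM final) at 37° C, 5% CO2. Supernatant SEAP (QUANTI-Blue, OD620) reports NF-κB; secreted luciferase (QUANTI-Luc, RLU at 5 min) reports IRF.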

[2] = tested on: IRF pathway, THP1-Dual™ cells; assay: STING reporter assay in THP1-Dual cells, IRF pathway (Lucia luciferase, QUANTI-Luc); format: cell-based, human; details: THP1-Dual cells, 10% human plasma, 20 hours, Lucia luciferase, 100% activation = 100 μM cGAMP, read-out: IRF (EC50 μM)
Outline: as §1

| EC50 ([1]; Homo sapiens, THP1-Dual, 20 h) [µM] | EC50 ([2]; Homo sapiens, THP1-Dual, 20 h) [µM] | EC50 [1] [µM] | EC50 [2] [µM] | Structure (SMILES) |
| --- | --- | --- | --- | --- |
| 4.2 | 4.2 | – | – | O=C(NCc1cc2cc(F)cc(C(=O)OCC(F)(F)F)c2o1)c1cnccn1 [EXAMPLE 229, 2,2,2-Trifluoroethyl 5-fluoro-2-((pyrazine-2-carboxamido)methyl)benzofuran-7-carboxylate] |
| 5.5 | 6.6 | – | – | Cc1cc(CC(=O)OCC(F)(F)F)c2oc(CNC(=O)c3cnn4cccnc34)cc2c1 [EXAMPLE 278, 2,2,2-Trifluoroethyl 2-(5-methyl-2-((pyrazolo[1,5-a]pyrimidine-3-carboxamido)methyl)benzofuran-7-yl)acetate] |
| 3.6 | 3.5 | – | – | COC(=O)c1cc(C)cc2cc(Cn3ccc4ccncc4c3=O)oc12 [Example 85, Methyl 5-methyl-2-((1-oxo-2,7-naphthyridin-2(1H)-yl)methyl)benzofuran-7-carboxylate] |
| > 100 | 24 | – | – | COC(=O)c1cc(Cl)cc2cc(CNC(=O)c3cncc4ncn(C)c34)oc12 [Example 70, Methyl 5-chloro-2-((1-methyl-1H-imidazo[4,5-c]pyridine-7-carboxamido)methyl)benzofuran-7-carboxylate] |
| – | – | 56 | 37 | CC(OC(=O)c1ccc(F)c2cc(CNC(=O)c3cnn4cccnc34)oc12)C(F)(F)F (single isomer, unassigned) [EXAMPLE 310, 1,1,1-Trifluoropropan-2-yl 4-fluoro-2-((pyrazolo[1,5-a]pyrimidine-3-carboxamido)methyl)benzofuran-7-carboxylate] |
| 3.6 | 3.1 | – | – | COC(=O)c1ccc(C)c2cc(CN3CCc4ccncc4C3=O)oc12 [EXAMPLE 28, Methyl 4-methyl-2-((1-oxo-3,4-dihydro-2,7-naphthyridin-2(1H)-yl)methyl)benzofuran-7-carboxylate] |
| 18 | 12 | – | – | Cc1ccc2cc(CNC(=O)c3cnn4cccnc34)oc2c1C(=O)OCC(F)(F)F [EXAMPLE 287, 2,2,2-Trifluoroethyl 6-methyl-2-((pyrazolo[1,5-a]pyrimidine-3-carboxamido)methyl)benzofuran-7-carboxylate] |
| 18 | 14 | – | – | CC(C)OC(=O)c1cc(Cl)cc2cc(Cn3cnc4ccncc4c3=O)oc12 [EXAMPLE 262, Isopropyl 5-chloro-2-((4-oxopyrido[4,3-d]pyrimidin-3(4H)-yl)methyl)benzofuran-7-carboxylate] |
| 2.1 | 1.7 | – | – | COC(=O)c1cc(Cl)cc2cc(CNC(=O)c3cncc4[nH]cnc34)oc12 [Example 68, Methyl 2-((3H-imidazo[4,5-c]pyridine-7-carboxamido)methyl)-5-chlorobenzofuran-7-carboxylate] |
| 0.56 | 0.58 | – | – | Cc1cc(C(=O)SCC(F)(F)F)c2oc(CNC(=O)c3cnn4cccnc34)cc2c1 [EXAMPLE 389, S-(2,2,2-Trifluoroethyl) 5-methyl-2-((pyrazolo[1,5-a]pyrimidine-3-carboxamido)methyl)benzofuran-7-carbothioate] |
| 2.3 | 2.6 | – | – | Cc1cc(C(=O)OCC(F)(F)F)c2oc(Cn3ccc4ccncc4c3=O)cc2c1 [EXAMPLE 375, 2,2,2-Trifluoroethyl 5-methyl-2-((1-oxo-2,7-naphthyridin-2(1H)-yl)methyl) benzofuran-7-carboxylate] |
| 23 | 25 | – | – | COC(=O)c1cc(O)cc2cc(CN3CCc4ccncc4C3=O)oc12 [EXAMPLE 103, Methyl 5-hydroxy-2-((1-oxo-3,4-dihydro-2,7-naphthyridin-2(1H)-yl)methyl)benzofuran-7-carboxylate] |
| 3.2 | 2.1 | – | – | COC(=O)c1cc(F)cc2cc(CNC(=O)c3cnn4ccc(OC)nc34)oc12 [EXAMPLE 40, Methyl 5-fluoro-2-((5-methoxypyrazolo[1,5-a]pyrimidine-3-carboxamido)methyl)benzofuran-7-carboxylate] |

Continued, molecule first:

| Structure (SMILES) | EC50 ([1]; Homo sapiens, THP1-Dual, 20 h) [µM] | EC50 ([2]; Homo sapiens, THP1-Dual, 20 h) [µM] | EC50 [1] [µM] | EC50 [2] [µM] |
| --- | --- | --- | --- | --- |
| CC(C)(C)OC(=O)N1CC(OC(=O)c2cc(Cl)cc3cc(CNC(=O)c4cnn5cccnc45)oc23)C1 [EXAMPLE 247, Tert-butyl 3-((5-chloro-2-((pyrazolo[1,5-a]pyrimidine-3-carboxamido)methyl)benzofuran-7-carbonyl)oxy)azetidine-1-carboxylate] | 13 | 9 | – | – |
| O=C(NCc1cc2cc(Cl)cc(-c3nnn[nH]3)c2o1)c1cncc2cccnc12 [EXAMPLE 410, N-((5-Chloro-7-(1H-tetrazol-5-yl)benzofuran-2-yl)methyl)-1,6-naphthyridine-8-carboxamide] | > 100 | 79 | – | – |
| Cc1cc(C(=O)O[C@@H](C)C(F)(F)F)c2oc(CNC(=O)c3cnn4cccnc34)cc2c1 [EXAMPLE 272, (S)-1,1,1-Trifluoropropan-2-yl 5-methyl-2-((pyrazolo[1,5-a]pyrimidine-3-carboxamido)methyl)-benzofuran-7-carboxylate] | 2.2 | 2.2 | – | – |
| COC(=O)c1cccc2cc(Cn3cccc(-c4cnco4)c3=O)oc12 [EXAMPLE 17, Methyl 2-((3-(oxazol-5-yl)-2-oxopyridin-1(2H)-yl)methyl)benzofuran-7-carboxylate] | 73 | 48 | – | – |
| Cc1ccc(C(=O)OCC(F)(F)F)c2oc(CN3CCc4ccncc4C3=O)cc12 [EXAMPLE 361] | 7.2 | 5.5 | – | – |
| CSC(=O)c1cc(Cl)cc2c(Cl)c([C@H](C)NC(=O)c3cnn4cccnc34)oc12 [EXAMPLE 402] | 2.4 | 2.4 | – | – |
| CC(C)OC(=O)c1ccc(F)c2cc(CNC(=O)c3cnn4cccnc34)oc12 [EXAMPLE 224, Isopropyl 4-fluoro-2-((pyrazolo[1,5-a]pyrimidine-3-carboxamido)methyl)benzofuran-7-carboxylate] | 4 | 5.9 | – | – |
| CC(CC(F)(F)F)OC(=O)c1cc(Cl)cc2cc(CNC(=O)c3cnn4cccnc34)oc12 (single isomer, unassigned) [EXAMPLE 335, 4,4,4-Trifluorobutan-2-yl 5-chloro-2-((pyrazolo[1,5-a]pyrimidine-3-carboxamido)methyl)benzofuran-7-carboxylate] | 3.5 | 3.5 | – | – |
| COC(OC(=O)c1cc(C(F)(F)F)cc2cc(CNC(=O)c3cnn4cccnc34)oc12)C(F)(F)F (single isomer, unassigned) [EXAMPLE 351, 2,2,2-Trifluoro-1-methoxyethyl 2-((pyrazolo[1,5-a]pyrimidine-3-carboxamido)methyl)-5-(trifluoromethyl)benzofuran-7-carboxylate] | 2.4 | 1.9 | – | – |
| CC(OC(=O)c1cc(C(F)(F)F)cc2cc(CNC(=O)c3cnn4cccnc34)oc12)C(F)(F)F (single isomer, unassigned) [EXAMPLE 350, 1,1,1-Trifluoropropan-2-yl 2-((pyrazolo[1,5-a]pyrimidine-3-carboxamido)methyl)-5-(trifluoromethyl)benzofuran-7-carboxylate] | – | – | 54 | 17 |
| COC(=O)c1ccc(Cl)c2cc(CNC(=O)c3cnn4cccnc34)oc12 [EXAMPLE 26, Methyl 4-chloro-2-((pyrazolo[1,5-a]pyrimidine-3-carboxamido)methyl)benzofuran-7-carboxylate] | 0.67 | 0.63 | – | – |
| N#CC1CC(OC(=O)c2cc(Cl)cc3cc(CNC(=O)c4cnn5cccnc45)oc23)C1 (centres unmarked) [EXAMPLE 241, 3-Cyanocyclobutyl 5-chloro-2-((pyrazolo[1,5-a]pyrimidine-3-carboxamido)methyl)benzofuran-7-carboxylate] | 2.3 | 2.3 | – | – |
| COC(=O)Cc1cc(Br)cc2cc(CNC(=O)c3cnn4cccnc34)oc12 [Example 84, Methyl 2-(5-bromo-2-((pyrazolo[1,5-a]pyrimidine-3-carboxamido)methyl)benzofuran-7-yl)acetate] | 27 | 30 | – | – |
| O=C(SCC(F)(F)F)c1cc(F)cc2cc(CNC(=O)c3cnn4cccnc34)oc12 [EXAMPLE 388, S-(2,2,2-Trifluoroethyl) 5-fluoro-2-((pyrazolo[1,5-a]pyrimidine-3-carboxamido)methyl)benzofuran-7-carbothioate] | 1.4 | 1.5 | – | – |
| CC(OC(=O)c1cccc2cc(CN3CCc4ccncc4C3=O)oc12)C(F)(F)F (single isomer, unassigned) [EXAMPLE 307, 1,1,1-Trifluoropropan-2-yl 2-((1-oxo-3,4-dihydro-2,7-naphthyridin-2(1H)-yl)methyl)benzo-furan-7-carboxylate] | – | – | 8.9 | 7.7 |
| Cc1cc(C(=O)O[C@H](C)C(F)(F)F)c2oc(C(C)NC(=O)c3cnn4cccnc34)cc2c1 (stereo partly drawn) [EXAMPLE 276, (R)-1,1,1-Trifluoropropan-2-yl 5-methyl-2-(1-(pyrazolo[1,5-a]pyrimidine-3-carboxamido)ethyl)benzofuran-7-carboxylate] | 3.4 | 3 | – | – |
| COC(=O)c1cc(Cl)cc2cc(Cn3cnc4ccncc4c3=O)oc12 [Example 76, Methyl 5-chloro-2-((4-oxopyrido[4,3-d]pyrimidin-3(4H)-yl)methyl)benzofuran-7-carboxylate] | 4.1 | 3 | – | – |
| C=Cc1cc(C(=O)OC)c2oc(CNC(=O)c3cnn4cccnc34)cc2c1 [EXAMPLE 100, Methyl 2-((pyrazolo[1,5-a]pyrimidine-3-carboxamido)methyl)-5-vinylbenzofuran-7-carboxylate] | 2.2 | 2.5 | – | – |
